Source: PubChem BioAssay AID256 (DTP/NCI, 2004)
“And” between values parts separate entries of the source, which are not always exact repeats. Equal entries are not always repeated. Toxic doses and inconclusive results are not listed.

System: CD2F1 mice, L1210 leukemia ip, survival T/C
Assay: NCI In Vivo Anticancer Drug Screen. Data for tumor model L1210 Leukemia (intraperitoneal) in CD2F1 (CDF1) mice
Conditions: higher = longer survival
Procedure, shortened: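 Vehicle-treated tumor-bearing mice served as controls (C) for compound-treated mice (T). Reported figure is T divided by C.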

[1] = endpoint: mean survival time, dose: 100.0 mg/kg/injection, schedule: Q04DX002 (ip), vehicle: saline with Tween-80
[2] = endpoint: mean survival time, dose: 200.0 mg/kg/injection, schedule: Q04DX002 (ip), vehicle: saline with Tween-80
[3] = endpoint: mean survival time, dose: 400.0 mg/kg/injection, schedule: Q04DX002 (ip), vehicle: saline with Tween-80
[4] = endpoint: mean survival time, dose: 100.0 mg/kg/injection, schedule: Q04DX003 (ip), vehicle: saline
[5] = endpoint: mean survival time, dose: 200.0 mg/kg/injection, schedule: Q04DX003 (ip), vehicle: saline
[6] = endpoint: mean survival time, dose: 400.0 mg/kg/injection, schedule: Q04DX003 (ip), vehicle: saline
[7] = endpoint: mean survival time, dose: 100.0 mg/kg/injection, schedule: Q01DX001 (ip), vehicle: saline with Tween-80
[8] = endpoint: mean survival time, dose: 200.0 mg/kg/injection, schedule: Q01DX001 (ip), vehicle: saline with Tween-80
[9] = endpoint: mean survival time, dose: 400.0 mg/kg/injection, schedule: Q01DX001 (ip), vehicle: saline with Tween-80
[10] = endpoint: mean survival time, dose: 100.0 mg/kg/injection, schedule: Q04DX003 (ip), vehicle: saline with Tween-80
[11] = endpoint: mean survival time, dose: 200.0 mg/kg/injection, schedule: Q04DX003 (ip), vehicle: saline with Tween-80
[12] = endpoint: mean survival time, dose: 400.0 mg/kg/injection, schedule: Q04DX003 (ip), vehicle: saline with Tween-80
[13] = endpoint: mean survival time, dose: 50.0 mg/kg/injection, schedule: Q01DX009 (ip), vehicle: saline with Tween-80
[14] = endpoint: mean survival time, dose: 100.0 mg/kg/injection, schedule: Q01DX009 (ip), vehicle: saline with Tween-80
[15] = endpoint: mean survival time, dose: 200.0 mg/kg/injection, schedule: Q01DX009 (ip), vehicle: saline with Tween-80
[16] = endpoint: mean survival time, dose: 25.0 mg/kg/injection, schedule: Q01DX009 (ip), vehicle: saline

## CC1=CCC(c2ccccc2)NC(=O)C1 (stereo not drawn)
[1]
  T/C: 96 % of control
[2]
  T/C: 104 % of control
[3]
  T/C: 104 % of control

## COc1ccc(-n2c(=O)[nH]c3c(c2=O)C(c2ccc(Cl)cc2)C(C)(C)O3)cc1 (stereo not drawn)
[1]
  T/C: 100 % of control
[2]
  T/C: 95 % of control
[3]
  T/C: 103 % of control

## COc1ccc(CN(C)CCO)cc1OC
endpoint: median survival time, dose: 25.0 mg/kg/injection, schedule: Q04DX003 (ip), vehicle: saline
  T/C: 100 % of control
endpoint: median survival time, dose: 50.0 mg/kg/injection, schedule: Q04DX003 (ip), vehicle: saline
  T/C: 100 % of control
endpoint: median survival time, dose: 100.0 mg/kg/injection, schedule: Q04DX003 (ip), vehicle: saline
  T/C: 90 % of control
endpoint: median survival time, dose: 200.0 mg/kg/injection, schedule: Q04DX003 (ip), vehicle: saline
  T/C: 100 % of control

## Nc1ccc(Cl)cc1C(=O)c1ccc[nH]1
endpoint: mean survival time, dose: 100.0 mg/kg/injection, schedule: Q01DX001 (ip), vehicle: saline
  T/C: 101 % of control
[4]
  T/C: 94 % of control
endpoint: mean survival time, dose: 200.0 mg/kg/injection, schedule: Q01DX001 (ip), vehicle: saline
  T/C: 98 % of control
[5]
  T/C: 94 % of control
endpoint: mean survival time, dose: 400.0 mg/kg/injection, schedule: Q01DX001 (ip), vehicle: saline
  T/C: 93 % of control
[6]
  T/C: 94 % of control

## CC(O)CNCCNC(=O)CNC(=O)C=[N+]=[N-] (stereo not drawn)
endpoint: mean survival time, dose: 200.0 mg/kg/injection, schedule: Q01DX009 (ip), vehicle: other
  T/C: 108 % of control
endpoint: mean survival time, dose: 800.0 mg/kg/injection, schedule: Q01DX009 (ip), vehicle: other
  T/C: 155 % of control

## C1CCC(CCCC(CCCC2CCCCC2)CCCC2CCCCC2)CC1
[7]
  T/C: 94 % of control
[8]
  T/C: 91 % of control
[9]
  T/C: 88 % of control

## COc1ccccc1N=Nc1c(O)n(-c2ccc(Br)cc2)c(=S)n(-c2ccccc2)c1=O
[7]
  T/C: 93 % of control
[8]
  T/C: 93 % of control
[9]
  T/C: 87 % of control

## COc1ccc(/C=N\N2C(=O)/C(=C\c3ccc(OC)cc3)SC2=S)cc1
[10]
  T/C: 97 % of control
[11]
  T/C: 93 % of control
[12]
  T/C: 89 % of control

## COc1ccc(/C=C(/C#N)C(N)=O)cc1Br
endpoint: mean survival time, dose: 50.0 mg/kg/injection, schedule: Q01DX009 (ip), vehicle: acetone
  T/C: 96 % of control
endpoint: mean survival time, dose: 100.0 mg/kg/injection, schedule: Q01DX009 (ip), vehicle: acetone
  T/C: 98 % of control
endpoint: mean survival time, dose: 200.0 mg/kg/injection, schedule: Q01DX009 (ip), vehicle: acetone
  T/C: 93 % of control

## CC1(C)CCC23CCC4(C)C(CCC5C6(C)CCC(O)C(C)(C)C6CCC54C)C2C1OC3=O (stereo not drawn)
endpoint: mean survival time, dose: 6.25 mg/kg/injection, schedule: Q04DX002 (ip), vehicle: saline with Tween-80
  T/C: 100 % of control
endpoint: mean survival time, dose: 12.5 mg/kg/injection, schedule: Q04DX002 (ip), vehicle: saline with Tween-80
  T/C: 103 % of control
endpoint: mean survival time, dose: 25.0 mg/kg/injection, schedule: Q04DX002 (ip), vehicle: saline with Tween-80
  T/C: 88 % of control and 103 % of control

## Clc1ccc(CN2COc3c(ccc4cccnc34)C2)cc1Cl
endpoint: mean survival time, dose: 12.5 mg/kg/injection, schedule: Q01DX009 (ip), vehicle: saline with Tween-80
  T/C: 95 % of control and 97 % of control
endpoint: mean survival time, dose: 25.0 mg/kg/injection, schedule: Q01DX009 (ip), vehicle: saline with Tween-80
  T/C: 92 % of control and 105 % of control
[13]
  T/C: 94 % of control and 105 % of control
[14]
  T/C: 103 % of control and 110 % of control
[15]
  T/C: 95 % of control
endpoint: mean survival time, dose: 400.0 mg/kg/injection, schedule: Q01DX009 (ip), vehicle: saline with Tween-80
  T/C: 94 % of control

## O=C1Cc2ccccc2O1
[16]
  T/C: 93 % of control
endpoint: mean survival time, dose: 50.0 mg/kg/injection, schedule: Q01DX009 (ip), vehicle: saline
  T/C: 96 % of control
endpoint: mean survival time, dose: 100.0 mg/kg/injection, schedule: Q01DX009 (ip), vehicle: saline
  T/C: 100 % of control
endpoint: mean survival time, dose: 200.0 mg/kg/injection, schedule: Q01DX009 (ip), vehicle: saline
  T/C: 97 % of control

## O=C1C(c2ccccc2)=C(c2ccccc2)CC1O (stereo not drawn)
[10]
  T/C: 103 % of control
[11]
  T/C: 91 % of control
[12]
  T/C: 103 % of control

## O=C(Cc1ccccc1)C(O)c1ccccc1 (stereo not drawn)
[7]
  T/C: 86 % of control
[8]
  T/C: 92 % of control
[9]
  T/C: 87 % of control

## COC1CCC2CC1[N+](C)(C)C2 (stereo not drawn)
endpoint: mean survival time, dose: 12.5 mg/kg/injection, schedule: Q04DX002 (ip), vehicle: saline
  T/C: 96 % of control
endpoint: mean survival time, dose: 25.0 mg/kg/injection, schedule: Q04DX002 (ip), vehicle: saline
  T/C: 101 % of control
endpoint: mean survival time, dose: 50.0 mg/kg/injection, schedule: Q04DX002 (ip), vehicle: saline
  T/C: 101 % of control

## Cc1nc(C)c(C(=O)O)cc1C(=O)O
[4]
  T/C: 102 % of control
[5]
  T/C: 96 % of control
[6]
  T/C: 98 % of control

## CCCCC(=O)OCC(=O)[C@]1(O)Cc2c(O)c3c(c(O)c2[C@@H](OC2CC(NC(=O)C(F)(F)F)C(O)C(C)O2)C1)C(=O)c1c(OC)cccc1C3=O (stereo partly drawn)
endpoint: mean survival time, dose: 4.0 mg/kg/injection, schedule: Q01DX009 (ip), vehicle: Klucel (hydroxypropylcellulose) (HPC)
  T/C: 113 % of control
endpoint: mean survival time, dose: 4.0 mg/kg/injection, schedule: Q01DX009 (ip), vehicle: water
  T/C: 97 % of control
endpoint: mean survival time, dose: 8.0 mg/kg/injection, schedule: Q01DX009 (ip), vehicle: Klucel (hydroxypropylcellulose) (HPC)
  T/C: 118 % of control
endpoint: mean survival time, dose: 8.0 mg/kg/injection, schedule: Q01DX009 (ip), vehicle: water
  T/C: 101 % of control
endpoint: mean survival time, dose: 16.0 mg/kg/injection, schedule: Q01DX009 (ip), vehicle: water
  T/C: 106 % of control
endpoint: mean survival time, dose: 32.0 mg/kg/injection, schedule: Q01DX009 (ip), vehicle: Klucel (hydroxypropylcellulose) (HPC)
  T/C: 150 % of control
endpoint: mean survival time, dose: 32.0 mg/kg/injection, schedule: Q01DX009 (ip), vehicle: water
  T/C: 111 % of control
endpoint: mean survival time, dose: 64.0 mg/kg/injection, schedule: Q01DX009 (ip), vehicle: Klucel (hydroxypropylcellulose) (HPC)
  T/C: 167 % of control
endpoint: mean survival time, dose: 64.0 mg/kg/injection, schedule: Q01DX009 (ip), vehicle: water
  T/C: 113 % of control
endpoint: mean survival time, dose: 128.0 mg/kg/injection, schedule: Q01DX009 (ip), vehicle: Klucel (hydroxypropylcellulose) (HPC)
  T/C: 250 % of control
endpoint: median survival time, dose: 13.0 mg/kg/injection, schedule: Q10HX004 (ip), vehicle: other
  T/C: 100 % of control
endpoint: median survival time, dose: 21.6 mg/kg/injection, schedule: Q10HX004 (ip), vehicle: other
  T/C: 102 % of control
endpoint: median survival time, dose: 36.0 mg/kg/injection, schedule: Q10HX004 (ip), vehicle: other
  T/C: 114 % of control
endpoint: median survival time, dose: 60.0 mg/kg/injection, schedule: Q10HX004 (ip), vehicle: other
  T/C: 118 % of control
endpoint: median survival time, dose: 100.0 mg/kg/injection, schedule: Q10HX004 (ip), vehicle: other
  T/C: 153 % of control

## Oc1ccccc1-c1ccccc1
[13]
  T/C: 98 % of control
[14]
  T/C: 98 % of control
[15]
  T/C: 98 % of control

## N=[N+]=CC(=O)OCC(N)C(=O)O (stereo not drawn)
endpoint: mean survival time, dose: 1.0 mg/kg/injection, schedule: Q03HX016 (ip), vehicle: saline
  T/C: 168 % of control
endpoint: mean survival time, dose: 2.0 mg/kg/injection, schedule: Q03HX016 (ip), vehicle: saline
  T/C: 168 % of control
endpoint: mean survival time, dose: 2.0 mg/kg/injection, schedule: Q03HX024 (ip), vehicle: saline
  T/C: 153 % of control and 163 % of control
endpoint: mean survival time, dose: 4.0 mg/kg/injection, schedule: Q03HX016 (ip), vehicle: saline
  T/C: 182 % of control
endpoint: mean survival time, dose: 4.0 mg/kg/injection, schedule: Q03HX024 (ip), vehicle: saline
  T/C: 171 % of control and 174 % of control
endpoint: mean survival time, dose: 8.0 mg/kg/injection, schedule: Q03HX016 (ip), vehicle: saline
  T/C: 115 % of control
endpoint: mean survival time, dose: 8.0 mg/kg/injection, schedule: Q03HX024 (ip), vehicle: saline
  T/C: 113 % of control and 115 % of control
endpoint: mean survival time, dose: 12.5 mg/kg/injection, schedule: Q01DX009 (ip), vehicle: saline
  T/C: 167 % of control
endpoint: mean survival time, dose: 25.0 mg/kg/injection, schedule: Q01DX007 (ip), vehicle: saline
  T/C: 122 % of control
[16]
  T/C: 100 % of control
endpoint: mean survival time, dose: 50.0 mg/kg/injection, schedule: Q01DX007 (ip), vehicle: saline
  T/C: 96 % of control
endpoint: mean survival time, dose: 50.0 mg/kg/injection, schedule: Q03DX003 (ip), vehicle: saline
  T/C: 151 % of control

## N#CCN1CCc2ccccc2C1
endpoint: mean survival time, dose: 100.0 mg/kg/injection, schedule: Q04DX003 (ip), vehicle: Klucel (hydroxypropylcellulose) (HPC)
  T/C: 94 % of control
endpoint: mean survival time, dose: 200.0 mg/kg/injection, schedule: Q04DX003 (ip), vehicle: Klucel (hydroxypropylcellulose) (HPC)
  T/C: 94 % of control

## COC(=O)/N=C(/NC(=O)OC)SC
[7]
  T/C: 101 % of control
[8]
  T/C: 103 % of control
[9]
  T/C: 98 % of control

## Cc1ccc(S(=O)(=O)OCCOCCOCCOS(=O)(=O)c2ccc(C)cc2)cc1
[10]
  T/C: 101 % of control
[11]
  T/C: 101 % of control
[12]
  T/C: 101 % of control
